Measured values: the NIST ThermoML archive (doi:10.1016/j.fluid.2005.11.017)
Where “and” joins values, the source holds several entries; their conditions need not be identical. Equal entries are not always repeated. ± gives the expanded uncertainty stated by the source.

Conditions: 313.15 K; Liquid

| vapor or sublimation pressure | SMILES |
| --- | --- |
| 4.015 ± 0.056 kPa [middle of 4 runs] | CC(C)CO [2-methyl-1-propanol] |
| 24.38 ± 0.18 kPa and 24.36 ± 0.18 kPa | c1ccccc1 [benzene] |

| SMILES | vapor or sublimation pressure |
| --- | --- |
| CC(C)OC(C)C [diisopropyl ether] | 37.11 ± 0.27 kPa and 37.09 ± 0.27 kPa and 37.14 ± 0.27 kPa |
